The numbers were not newly measured in patent publication US20060163529A1, “Water-based coolant fluid for engine applications” (Neste Oil Oyj, priority 2002, published 2006), which cites them from elsewhere.

This data set has as its system rats. As to conditions: tested orally in rats.

Structures are written as SMILES.

Regarding `CC(O)CO` (centres unmarked) [Propylene glycol, propylene glycol], the LD50 is on record as 20 000 mg/kg.
Turning to `C[N+](C)(C)CC(=O)O` [Trimethyl glycine, trimethyl glycine], the LD50 is 11 200 mg/kg.
